Laboratory results as given in US20240299562A1 (priority 2020, published 2024).
*1 amine or outer side, *2 acyl side, *3 side chain or, on linkers, in order; H or OH if unused. Where a SMILES comes first, the peptide text is derived from it. [ ]: non-standard residue; d: D form. The star is where a group is joined. X1 = CO[C@@H](C1CCCN1[*:1])[C@@H](C)C(=O)[*:2]; Dil = CC[C@H](C)[C@H](NC)[C@@H](CC(=O)O)OC; PABC = O=C(OCc1ccc(N[*:1])cc1)[*:2]; Phosphonoacetyl = O=C(CP(=O)(O)O)*; X2 = C[C@@H](N*)[C@@H](O)c1ccccc1; NMeV = CN[C@H](C(=O)O)C(C)C

Legend:
cancer cell lines = test: In vitro potency and selectivity across a variety of cancer indications (WST-1); type: cell-based; conditions: 72 hrs
Description: All commercial cell lines were purchased at ATCC (LGC Standards SARL, France). Cells were seeded in 96-well plates according to their optimal seeding density, varying between 5.000 and 10.000 cells/well. After attachment overnight, 10-point serial titrations (1:5) were prepared in their equivalent complete media as recommended by ATCC, starting from the 10 mM stock solutions. For doxorubicin comprising prodrugs dilutions started from 100 μM, while for the parent compound doxorubicin dilutions started at 10 μM. […] Seventy-two hours later, compounds were removed together with the supernatants and cells were washed once with PBS to remove excess drugs.
The WST-1 assay for cell proliferation and viability (Roche, Switzerland) was performed according to manufacturer's protocol. Absorbances were measured at 4 hrs using a Perkin Elmer Ensight multiplate reader, equipped with Kaleido 2.0 software (Perkin Elmer, USA). Cell viability was expressed as a percentage compared to non-treated cells. Absolute IC50 values were extrapolated from a non-linear fitting following the Sigmoidal-4PL regression method using Graphpad Prism 7.0. Likewise, maximal efficacy was determined as 100% minus the cell viability determined when cells are incubated in the presence of a compound. […]

[1] = test system: U87 MG glioblastoma cells subcutaneously implanted in nude NMRI mice; test: In vivo activity of PhAc-ALLP-PABC-MMAE on U87 MG glioblastoma xenograft; design: species or system mouse; conditions: 2 mg/kg iv, once per week
Description: The in vivo efficacy of PhAc-ALLP-PABC-MMAE was tested in a mouse GBM model. U87 MG glioblastoma cells were subcutaneously (SC) implanted in nude NMRI mice. In total, 24 adult (9-10 weeks old) nude female NMRI mice (Janvier, France) were subjected to SC tumor cell grafting in the right flank. In total, 5×10^6 U87 MG cells resuspended in PBS plus Matrigel (1:1) were injected in 200 uL final volume. As soon as the tumors were palpable and reached the volume of 200 mm3 the treatment was started. At day zero, mice were randomly divided into 3 groups, based on the tumor volume, in order to have the following experimental sub-cohorts: • control group receiving the vehicle (PBS pH7.2) with a dose of 5 ml/kg, intravenously (iv), once per week (QW); • PhAc-ALLP-PABC-MMAE (2 mg/kg iv, QW); • MMAE (0.9 mg/kg iv, QW).
Treatments were performed once per week for a total of four tail vein administrations/injections (on days 1, 7, 14 and 21). One extra week of observation followed the active treatment phase. During the experiment, tumor volume was measured two times a week and was assessed three-dimensionally with a digital caliper (Mitutoyo, Illinois) using the following formula:
V=4/3π×[(d/2)^2×(D/2)], where d is the minor tumor axis and D is the major tumor axis.

Row | SMILES | Potency range against cancer cells (cancer cell lines) | Macroscopical toxicity [1] | Tumor volume compared to the untreated control group ([1]; four administrations)
1 | COc1cccc2c1C(=O)c1c(O)c3c(c(O)c1C2=O)C[C@@](O)(C(=O)CO)C[C@@H]3O[C@H]1C[C@H](NC(=O)[C@@H]2CCCN2C(=O)[C@H](CC(C)C)NC(=O)[C@H](CC(C)C)NC(=O)[C@H](C)NC(=O)CP(=O)(O)O)[C@H](O)[C@H](C)O1 [PhAc-ALLP-Dox, PhAc-ALLP-Doxorubicin] (HELM PEPTIDE1{[O=C(CP(=O)(O)O)[*:2]].A.L.L.P.[COc1cccc2c1C(=O)c1c(O)c3c(c(O)c1C2=O)C[C@@](O)(C(=O)CO)C[C@@H]3O[C@H]1C[C@H](N[*:1])[C@H](O)[C@H](C)O1]}$$$$V2.0) | within the micromolar range | – | –
2 | CC[C@H](C)[C@@H]([C@@H](CC(=O)N1CCCC1[C@H](OC)[C@@H](C)C(=O)N[C@H](C)[C@@H](O)c1ccccc1)OC)N(C)C(=O)[C@@H](NC(=O)[C@H](C(C)C)N(C)C(=O)OCc1ccc(NC(=O)[C@@H]2CCCN2C(=O)[C@H](CC(C)C)NC(=O)[C@H](CC(C)C)NC(=O)[C@H](C)NC(=O)CP(=O)(O)O)cc1)C(C)C (stereo partly drawn) [PhAc-ALLP-PABC-MMAE] (Phosphonoacetyl-ALLP[PABC][NMeV]V[Dil][X1]-X2) | – | without any hint of macroscopical sign of toxicity | importantly reduced the tumor volume
